Data on 4 molecules can be found in ChEMBL document CHEMBL1150737, “Antitumor agents, 90. Bruceantinoside C, a new cytotoxic quassinoid glycoside from Brucea antidysenterica” (1987).

Values after ≈ are worked out from the molar mass of the structure shown.

In one assay the test system is P388. Put plainly: Cytotoxicity against mouse P388 cells. In kind it is functional. The settings on record: read-out: ED50 (the source's name).
The subject of the next assay is L1210. Briefly: Cytotoxicity against mouse L1210 cells. The assay is classed as functional. The settings on record: read-out: ED50 (the source's name).

Regarding `COC(=O)[C@]12OC[C@]34[C@H]([C@@H](O)[C@@H]1O)[C@@]1(C)C(=O)C(O[C@@H]5O[C@H](CO)[C@@H](O)[C@H](O)[C@H]5O)=C[C@@H](C)[C@@H]1C[C@H]3OC(=O)[C@H](OC(=O)/C=C(\C)C(C)(C)OC(C)=O)[C@@H]24` [Bruceantinoside C], the EC50 with P388 worked out at 2.12 µg/mL (≈ 2.76 µM); with L1210, 3.5 µg/mL (≈ 4.55 µM).

As for `O=c1[nH]cc(F)c(=O)[nH]1` [FLUOROURACIL], the results for the EC50 in the assay with P388 and in the assay on L1210 were 3.72 µg/mL (≈ 28.6 µM) and 1.94 µg/mL (≈ 14.9 µM), respectively.

Consider `COC(=O)[C@]12OC[C@]34[C@H]([C@@H](O)[C@@H]1O)[C@@]1(C)C=C(O[C@@H]5O[C@H](CO)[C@@H](O)[C@H](O)[C@H]5O)C(=O)[C@@H](C)[C@@H]1C[C@H]3OC(=O)[C@H](OC(=O)/C=C(\C)C(C)(C)OC(C)=O)[C@@H]24` [Yadanzioside G], for which the EC50 with P388 stood at 1.25 µg/mL (≈ 1.63 µM); in the assay on L1210 it was 2.58 µg/mL (≈ 3.36 µM).

For the molecule `COC(=O)[C@]12OC[C@]34[C@H]([C@@H](O)[C@@H]1O)[C@@]1(C)C(=O)C(O[C@@H]5O[C@H](CO)[C@@H](O)[C@H](O)[C@H]5O)=C[C@@H](C)[C@@H]1C[C@H]3OC(=O)[C@H](OC(=O)/C=C(\C)C(C)C)[C@@H]24` [Yadanzioside N], the EC50 in the assay on P388 amounted to 2.24 µg/mL (≈ 3.15 µM); with L1210 it was 4.56 µg/mL (≈ 6.42 µM).
